Test system: C2C12 cells
Test: Evaluation of myogenesis of C2C12 cells by fusion index
Assay type: cell-based, mouse
Details: differentiation condition 72 hours, DMSO as 1, average of three
Description: (1) C2C12 cells were grown to confluence under growth condition, and then in differentiation condition for 72 hours, in a culture medium added with DMSO, IBS008738 (exemplary compound 1) or exemplary compounds 2 to 44, at a concentration of 1 μM, 3 μM or 10 μM, respectively. Thereafter, the degree of myogenesis was evaluated by a fusion index (a value obtained by dividing the number of nuclei detected in multinucleated myosin heavy chain (MHC)-positive cells by the total number of the nuclei). Specifically, exemplary compounds were divided into five groups, and DMSO and IBS008738 were evaluated in each group as controls. The evaluation was conducted three times, and the average value and the standard deviation of the fusion index was relativized with the measured value of DMSO as 1.
C2C12 cells were passaged in a growth medium (DMEM containing 10% FBS) and differentiated in a differentiation medium (DMEM containing 2% horse serum (Invitrogen)).

Cc1ccc(-n2cnc(N)c2C(=O)c2ccc(Cl)cc2)cc1 [exemplary compound 32]
relative fusion index (FI) (Group 4, 1 μM): 1.16 | relative fusion index (FI) (Group 4, 3 μM): 1.47 | relative fusion index (FI) (Group 4, 10 μM): 1.60

Cc1ccccc1-n1cnc(N)c1C(=O)C12CC3CC(CC(C3)C1)C2 [exemplary compound 42]
relative fusion index (FI) (Group 5, 1 μM): 1.08 | relative fusion index (FI) (Group 5, 3 μM): 1.03 | relative fusion index (FI) (Group 5, 10 μM): 1.10

Nc1ncn(-c2ccc(Br)cc2)c1C(=O)c1ccccc1 [exemplary compound 17]
relative fusion index (FI) (Group 2, 1 μM): 1.51 | relative fusion index (FI) (Group 2, 3 μM): 2.14 | relative fusion index (FI) (Group 2, 10 μM): 2.07

COc1ccc(-n2cnc(N)c2C(=O)c2ccccc2)cc1 [exemplary compound 13]
relative fusion index (FI) (Group 2, 1 μM): 1.22 | relative fusion index (FI) (Group 2, 3 μM): 1.32 | relative fusion index (FI) (Group 2, 10 μM): 1.53

CCOC(=O)c1c(N)ncn1-c1ccccc1C [exemplary compound 40]
relative fusion index (FI) (Group 5, 1 μM): 1.12 | relative fusion index (FI) (Group 5, 3 μM): 1.15 | relative fusion index (FI) (Group 5, 10 μM): 1.10

COc1ccc(-n2cnc(/N=C/N(C)C)c2C(=O)c2ccccc2)cc1 [exemplary compound 14]
relative fusion index (FI) (Group 2, 1 μM): 1.18 | relative fusion index (FI) (Group 2, 3 μM): 1.63 | relative fusion index (FI) (Group 2, 10 μM): 1.72

Cc1cc(C)c(-n2cnc(N)c2C(=O)c2ccccc2)c(C)c1 [exemplary compound 44]
relative fusion index (FI) (Group 5, 1 μM): 1.11 | relative fusion index (FI) (Group 5, 3 μM): 1.08 | relative fusion index (FI) (Group 5, 10 μM): 1.07

Cc1ccc(-n2cnc(N)c2C(=O)c2ccccc2)c(C)c1 [exemplary compound 43]
relative fusion index (FI) (Group 5, 1 μM): 1.07 | relative fusion index (FI) (Group 5, 3 μM): 1.11 | relative fusion index (FI) (Group 5, 10 μM): 1.12

Cc1ccc(-n2cnc(N)c2C(=O)c2ccc([N+](=O)[O-])cc2)cc1 [exemplary compound 33]
relative fusion index (FI) (Group 4, 1 μM): 0.91 | relative fusion index (FI) (Group 4, 3 μM): 1.20 | relative fusion index (FI) (Group 4, 10 μM): 1.23

CC(C)(C)OC(=O)NCCc1ccc(-n2cnc(N)c2C(=O)c2ccccc2)cc1 [exemplary compound 27]
relative fusion index (FI) (Group 4, 1 μM): 0.97 | relative fusion index (FI) (Group 4, 3 μM): 1.67 | relative fusion index (FI) (Group 4, 10 μM): 1.98

Cc1ccc(-n2c(C)nc(N)c2C(=O)c2ccccc2)cc1 [exemplary compound 16]
relative fusion index (FI) (Group 2, 1 μM): 1.06 | relative fusion index (FI) (Group 2, 3 μM): 1.18 | relative fusion index (FI) (Group 2, 10 μM): 1.60

O=C(c1ccccc1)c1c(/N=C/N2CCOCC2)ncn1-c1ccc(Br)cc1 [exemplary compound 20]
relative fusion index (FI) (Group 3, 1 μM): 1.26 | relative fusion index (FI) (Group 3, 3 μM): 1.41 | relative fusion index (FI) (Group 3, 10 μM): 1.60

COc1ccc(C(=O)c2c(N)ncn2-c2ccc(C)cc2)cc1 [exemplary compound 30]
relative fusion index (FI) (Group 4, 1 μM): 1.27 | relative fusion index (FI) (Group 4, 3 μM): 1.52 | relative fusion index (FI) (Group 4, 10 μM): 1.54

N#CCc1ccc(-n2cnc(N)c2C(=O)c2ccccc2)cc1 [exemplary compound 29]
relative fusion index (FI) (Group 4, 1 μM): 1.25 | relative fusion index (FI) (Group 4, 3 μM): 1.49 | relative fusion index (FI) (Group 4, 10 μM): 1.61

COc1ccc(-n2cnc(/N=C/N3CCOCC3)c2C(=O)c2ccccc2)cc1 [exemplary compound 15]
relative fusion index (FI) (Group 2, 1 μM): 1.20 | relative fusion index (FI) (Group 2, 3 μM): 1.58 | relative fusion index (FI) (Group 2, 10 μM): 1.58

CCOC(=O)c1c(/N=C/N2CCOCC2)ncn1-c1ccc(C)cc1 [exemplary compound 10]
relative fusion index (FI) (Group 1, 1 μM): 0.80 | relative fusion index (FI) (Group 1, 3 μM): 1.31 | relative fusion index (FI) (Group 1, 10 μM): 0.85

Cc1ccc(-n2cnc(N)c2C(=O)c2ccc(F)cc2)cc1 [exemplary compound 34]
relative fusion index (FI) (Group 4, 1 μM): 1.38 | relative fusion index (FI) (Group 4, 3 μM): 1.33 | relative fusion index (FI) (Group 4, 10 μM): 1.49

CN(C)/C=N/c1ncn(-c2ccc(Br)cc2)c1C(=O)c1ccccc1 [exemplary compound 19]
relative fusion index (FI) (Group 3, 1 μM): 1.25 | relative fusion index (FI) (Group 3, 3 μM): 1.57 | relative fusion index (FI) (Group 3, 10 μM): 1.63

CNc1ncn(-c2ccc(C)cc2)c1C(=O)c1ccccc1 [exemplary compound 12]
relative fusion index (FI) (Group 2, 1 μM): 1.24 | relative fusion index (FI) (Group 2, 3 μM): 1.43 | relative fusion index (FI) (Group 2, 10 μM): 1.36

Cc1ccc(-n2cnc(N(C)C)c2C(=O)c2ccccc2)cc1 [exemplary compound 18]
relative fusion index (FI) (Group 3, 1 μM): 1.34 | relative fusion index (FI) (Group 3, 3 μM): 1.52 | relative fusion index (FI) (Group 3, 10 μM): 1.85

CC(=O)c1c(N)ncn1-c1ccccc1C [exemplary compound 41]
relative fusion index (FI) (Group 5, 1 μM): 1.14 | relative fusion index (FI) (Group 5, 3 μM): 1.06 | relative fusion index (FI) (Group 5, 10 μM): 1.11

CCOC(=O)c1c(N)ncn1-c1ccc(C)cc1 [exemplary compound 7]
relative fusion index (FI) (Group 1, 1 μM): 1.09 | relative fusion index (FI) (Group 1, 3 μM): 1.55 | relative fusion index (FI) (Group 1, 10 μM): 1.44

Cc1ccc(-n2cnc(N)c2C#N)cc1 [exemplary compound 26]
relative fusion index (FI) (Group 3, 1 μM): 1.01 | relative fusion index (FI) (Group 3, 3 μM): 1.09 | relative fusion index (FI) (Group 3, 10 μM): 1.44

Cc1ccc(-n2cnc(N)c2C(=O)C23CC4CC(CC(C4)C2)C3)cc1 [exemplary compound 37]
relative fusion index (FI) (Group 4, 1 μM): 1.39 | relative fusion index (FI) (Group 4, 3 μM): 1.47 | relative fusion index (FI) (Group 4, 10 μM): 1.77

CC(=O)Nc1ncn(-c2ccc(C)cc2)c1C(=O)c1ccccc1 [exemplary compound 5]
relative fusion index (FI) (Group 1, 1 μM): 0.85 | relative fusion index (FI) (Group 1, 3 μM): 1.50 | relative fusion index (FI) (Group 1, 10 μM): 1.57

Cc1ccc(-n2cnc(N)c2C(=O)c2ccc(Br)cc2)cc1 [exemplary compound 36]
relative fusion index (FI) (Group 4, 1 μM): 1.12 | relative fusion index (FI) (Group 4, 3 μM): 1.57 | relative fusion index (FI) (Group 4, 10 μM): 1.59

Cc1ccc(-n2cnc(/N=C/N3CCCCC3)c2C(=O)c2ccccc2)cc1 [exemplary compound 4]
relative fusion index (FI) (Group 1, 1 μM): 1.02 | relative fusion index (FI) (Group 1, 3 μM): 1.54 | relative fusion index (FI) (Group 1, 10 μM): 1.51

Cc1ccc(-n2cnc(N)c2C(=O)c2cccc(Cl)c2)cc1 [exemplary compound 31]
relative fusion index (FI) (Group 4, 1 μM): 1.12 | relative fusion index (FI) (Group 4, 3 μM): 1.15 | relative fusion index (FI) (Group 4, 10 μM): 1.40

Nc1ncn(-c2ccc(Cl)cc2Cl)c1C(=O)c1ccccc1 [exemplary compound 35]
relative fusion index (FI) (Group 4, 1 μM): 1.27 | relative fusion index (FI) (Group 4, 3 μM): 1.60 | relative fusion index (FI) (Group 4, 10 μM): 1.55

Nc1ncn(-c2ccccn2)c1C(=O)c1ccccc1 [exemplary compound 38]
relative fusion index (FI) (Group 5, 1 μM): 1.08 | relative fusion index (FI) (Group 5, 3 μM): 1.12 | relative fusion index (FI) (Group 5, 10 μM): 1.15

N#Cc1ccc(-n2cnc(N)c2C(=O)c2ccccc2)cc1 [exemplary compound 39]
relative fusion index (FI) (Group 5, 1 μM): 1.04 | relative fusion index (FI) (Group 5, 3 μM): 1.10 | relative fusion index (FI) (Group 5, 10 μM): 1.09

CCOC(=O)c1c(/N=C/N(C)C)ncn1-c1ccc(C)cc1 [exemplary compound 8]
relative fusion index (FI) (Group 1, 1 μM): 0.93 | relative fusion index (FI) (Group 1, 3 μM): 1.53 | relative fusion index (FI) (Group 1, 10 μM): 1.05

Cc1ccc(-n2cnc(N)c2C(=O)c2ccccc2)cc1 [exemplary compound 2]
relative fusion index (FI) (Group 1, 1 μM): 1.62 | relative fusion index (FI) (Group 1, 3 μM): 2.26 | relative fusion index (FI) (Group 1, 10 μM): 2.41

CC(=O)c1c(/N=C/N(C)C)ncn1-c1ccc(C)cc1 [exemplary compound 25]
relative fusion index (FI) (Group 3, 1 μM): 0.96 | relative fusion index (FI) (Group 3, 3 μM): 1.22 | relative fusion index (FI) (Group 3, 10 μM): 1.44

Cc1ccc(-n2cnc(/N=C/c3ccccc3)c2C(=O)c2ccccc2)cc1 [exemplary compound 6]
relative fusion index (FI) (Group 1, 1 μM): 0.96 | relative fusion index (FI) (Group 1, 3 μM): 1.78 | relative fusion index (FI) (Group 1, 10 μM): 1.42

NCCc1ccc(-n2cnc(N)c2C(=O)c2ccccc2)cc1 [exemplary compound 28]
relative fusion index (FI) (Group 4, 1 μM): 1.21 | relative fusion index (FI) (Group 4, 3 μM): 1.42 | relative fusion index (FI) (Group 4, 10 μM): 1.64

From patent US10653672B2, “Myogenesis promotor, muscle atrophy inhibitor, medical composition and TAZ activator” (National University Corporation Tokyo Medical and Dental …, priority 2014, dated 2020)
